Laboratory results reported in patent US12194051B2, “5-azaindazole derivatives as adenosine receptor antagonists” (MERCK PATENT GMBH, priority 2018, dated 2025).

Key:
human A2A receptors = biological target: T1, human A2A receptors (Homo sapiens, UniProt P29274); experiment: Inhibition of human A2A receptor in recombinant HEK293 cells, cAMP quantification (HTRF); type: cell-based; conditions: read-out: A2A (Category)
T1 construct: expressed in transfected cells; host or cells: HEK293
Protocol: (§1) The functional activities of human A2A and A2B receptors were determined by quantification of cAMP, being the second messenger for adenosine receptors.
(§2) After a 15 min incubation, HTRF reagents (cAMP dynamic 2, Cis Bio) were added and the cellular cAMP levels were determined using the ENVISION (Perkin Elmer) plate reader.

human A2B receptors = biological target: T2, human A2B receptors (Homo sapiens, UniProt P29275); experiment: Inhibition of human A2B receptor in recombinant HEK293 cells, cAMP quantification (HTRF); type: cell-based; conditions: read-out: A2B (Category)
T2 construct: expressed in transfected cells; host or cells: HEK293
T2 sequence (P29275 1-332): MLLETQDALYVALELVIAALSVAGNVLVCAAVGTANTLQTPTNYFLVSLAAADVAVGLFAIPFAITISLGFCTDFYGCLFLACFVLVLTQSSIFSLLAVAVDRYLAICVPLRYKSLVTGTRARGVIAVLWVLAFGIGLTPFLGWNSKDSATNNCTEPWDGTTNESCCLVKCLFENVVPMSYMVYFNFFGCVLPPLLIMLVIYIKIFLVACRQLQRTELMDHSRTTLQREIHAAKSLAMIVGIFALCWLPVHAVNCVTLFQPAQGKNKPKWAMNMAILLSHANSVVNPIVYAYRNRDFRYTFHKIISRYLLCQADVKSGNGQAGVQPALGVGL
Protocol: as §1, §2

T1 sequence (P29274 whole entry): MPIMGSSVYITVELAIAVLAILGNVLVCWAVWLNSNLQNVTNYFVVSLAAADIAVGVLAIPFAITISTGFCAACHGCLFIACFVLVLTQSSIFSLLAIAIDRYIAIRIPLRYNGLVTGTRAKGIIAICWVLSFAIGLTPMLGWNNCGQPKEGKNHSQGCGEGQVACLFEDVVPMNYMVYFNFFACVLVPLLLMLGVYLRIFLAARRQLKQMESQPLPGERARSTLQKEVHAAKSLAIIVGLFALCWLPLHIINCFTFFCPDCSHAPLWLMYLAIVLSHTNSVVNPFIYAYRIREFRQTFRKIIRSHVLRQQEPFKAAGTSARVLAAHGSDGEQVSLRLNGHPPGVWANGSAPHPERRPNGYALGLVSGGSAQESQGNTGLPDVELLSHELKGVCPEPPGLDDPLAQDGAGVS

Row | Compound | IC50 (human A2A receptors) | IC50 (human A2B receptors)
1 | CS(=O)(=O)Cn1nc(Nc2ccc(F)cc2)c2cnc(C(=O)N3[C@@H]4CC[C@H]3C[C@@H](O)C4)cc21 [Compound 30, [3-(4-fluoroanilino)-1-(methylsulfonylmethyl)pyrazolo[4,3-c]pyridin-6-yl]-(3-endo-hydroxy-8-azabicyclo[3.2.1]octan-8-yl)methanone] | < 100 nM | < 1000 nM
2 | CS(=O)(=O)Cn1nc(Nc2cccc(F)c2)c2cnc(C(=O)N3[C@@H]4CC[C@H]3C[C@@H](O)C4)cc21 [Compound 31, [3-(3-fluoroanilino)-1-(methylsulfonylmethyl)pyrazolo[4,3-c]pyridin-6-yl]-(3-endo-hydroxy-8-azabicyclo[3.2.1]octan-8-yl)methanone] | < 100 nM | < 100 nM
3 | O=C(c1cc2c(cn1)c(Nc1cccc(F)c1)nn2CC(F)(F)F)N1CCOCC(O)C1 (centres unmarked) [Compound 32, [3-(3-fluoroanilino)-1-(2,2,2-trifluoroethyl)pyrazolo[4,3-c]pyridin-6-yl]-(6-hydroxy-1,4-oxazepan-4-yl)methanone] | < 100 nM | < 1000 nM
4 | O=C(c1cc2c(cn1)c(Nc1ccc(F)cc1)nn2CC(F)(F)F)N1CCOCC(O)C1 (centres unmarked) [Compound 33, [3-(4-fluoroanilino)-1-(2,2,2-trifluoroethyl)pyrazolo[4,3-c]pyridin-6-yl]-(6-hydroxy-1,4-oxazepan-4-yl)methanone] | < 100 nM | < 1000 nM
5 | CC1(O)CCN(C(=O)c2cc3c(cn2)c(Nc2ccc(F)cc2)nn3CC(F)(F)F)CC1 [Compound 34, [3-(4-fluoroanilino)-1-(2,2,2-trifluoroethyl)pyrazolo[4,3-c]pyridin-6-yl]-(4-hydroxy-4-methyl-1-piperidyl)methanone] | < 100 nM | < 1000 nM
6 | CC1(O)CCN(C(=O)c2cc3c(cn2)c(Nc2cccc(F)c2)nn3CC(F)(F)F)CC1 [Compound 35, [3-(3-fluoroanilino)-1-(2,2,2-trifluoroethyl)pyrazolo[4,3-c]pyridin-6-yl]-(4-hydroxy-4-methyl-1-piperidyl)methanone] | < 100 nM | < 1000 nM
7 | O=C(c1cc2c(cn1)c(Nc1cccc(Cl)c1)nn2CC(F)(F)F)N1CCCOCC1 [Compound 37, [3-(3-chloroanilino)-1-(2,2,2-trifluoroethyl)pyrazolo[4,3-c]pyridin-6-yl]-(1,4-oxazepan-4-yl)methanone] | < 100 nM | < 1000 nM
8 | O=C(c1cc2c(cn1)c(Nc1ccc(Cl)cc1)nn2CC(F)(F)F)N1CCCOCC1 [Compound 38, [3-(4-chloroanilino)-1-(2,2,2-trifluoroethyl)pyrazolo[4,3-c]pyridin-6-yl]-(1,4-oxazepan-4-yl)methanone] | < 100 nM | < 100 nM
9 | [2H]C1([2H])COCCN(C(=O)c2cc3c(cn2)c(Nc2cccc(F)c2)nn3CC(F)(F)F)C1 [Compound 40, (6,6-dideuterio-1,4-oxazepan-4-yl)-[3-(3-fluoroanilino)-1-(2,2,2-trifluoroethyl)pyrazolo[4,3-c]pyridin-6-yl]methanone] | < 100 nM | < 100 nM
10 | [2H]C1([2H])COCCN(C(=O)c2cc3c(cn2)c(Nc2ccc(F)cc2)nn3CC(F)(F)F)C1 [Compound 41, (6,6-dideuterio-1,4-oxazepan-4-yl)-[3-(4-fluoroanilino)-1-(2,2,2-trifluoroethyl)pyrazolo[4,3-c]pyridin-6-yl]methanone] | < 100 nM | < 1000 nM
11 | O=C(c1cc2c(cn1)c(Nc1ccccn1)nn2CC(F)(F)F)N1CCCOCC1 [Compound 42, 1,4-oxazepan-4-yl-[3-(2-pyridylamino)-1-(2,2,2-trifluoroethyl)pyrazolo[4,3-c]pyridin-6-yl]methanone] | < 100 nM | < 100 nM
12 | O=C(c1cc2c(cn1)c(Nc1ccc(F)cn1)nn2CC(F)(F)F)N1CCCOCC1 [Compound 44, [3-[(5-fluoro-2-pyridyl)amino]-1-(2,2,2-trifluoroethyl)pyrazolo[4,3-c]pyridin-6-yl]-(1,4-oxazepan-4-yl)methanone] | < 100 nM | < 100 nM
13 | O=C(c1cc2c(cn1)c(Nc1cc(F)ccn1)nn2CC(F)(F)F)N1CCCOCC1 [Compound 46, [3-[(4-fluoro-2-pyridyl)amino]-1-(2,2,2-trifluoroethyl)pyrazolo[4,3-c]pyridin-6-yl]-(1,4-oxazepan-4-yl)methanone] | < 100 nM | < 100 nM
14 | O=C(c1cc2c(cn1)c(Nc1ccccn1)nn2CC(F)(F)F)N1CC2CCC(C1)O2 [Compound 47, 8-oxa-3-azabicyclo[3.2.1]octan-3-yl-[3-(2-pyridylamino)-1-(2,2,2-trifluoroethyl)pyrazolo[4,3-c]pyridin-6-yl]methanone] | < 100 nM | < 100 nM
15 | O=C(c1cc2c(cn1)c(Nc1ccc(Cl)cn1)nn2CC(F)(F)F)N1CCCOCC1 [Compound 48, [3-[(5-chloro-2-pyridyl)amino]-1-(2,2,2-trifluoroethyl)pyrazolo[4,3-c]pyridin-6-yl]-(1,4-oxazepan-4-yl)methanone] | < 100 nM | < 100 nM
16 | O=C(c1cc2c(cn1)c(Nc1cccc(F)n1)nn2CC(F)(F)F)N1CCCOCC1 [Compound 49, [3-[(6-fluoro-2-pyridyl)amino]-1-(2,2,2-trifluoroethyl)pyrazolo[4,3-c]pyridin-6-yl]-(1,4-oxazepan-4-yl)methanone] | < 100 nM | < 100 nM
17 | O=C(c1cc2c(cn1)c(Nc1cccc(Cl)n1)nn2CC(F)(F)F)N1CCCOCC1 [Compound 51, [3-[(6-chloro-2-pyridyl)amino]-1-(2,2,2-trifluoroethyl)pyrazolo[4,3-c]pyridin-6-yl]-(1,4-oxazepan-4-yl)methanone] | < 100 nM | < 1000 nM
18 | O=C(c1cc2c(cn1)c(Nc1ccccn1)nn2CC(F)(F)F)N1CCOCC(O)C1 (centres unmarked) [Compound 52, (6-hydroxy-1,4-oxazepan-4-yl)-[3-(2-pyridylamino)-1-(2,2,2-trifluoroethyl)pyrazolo[4,3-c]pyridin-6-yl]methanone] | < 100 nM | < 100 nM
19 | CC1(O)CCN(C(=O)c2cc3c(cn2)c(Nc2ccccn2)nn3CC(F)(F)F)CC1 [Compound 53, (4-hydroxy-4-methyl-1-piperidyl)-[3-(2-pyridylamino)-1-(2,2,2-trifluoroethyl)pyrazolo[4,3-c]pyridin-6-yl]methanone] | < 100 nM | < 100 nM
20 | [2H]C1([2H])COCCN(C(=O)c2cc3c(cn2)c(Nc2ccccn2)nn3CC(F)(F)F)C1 [Compound 59, (6,6-dideuterio-1,4-oxazepan-4-yl)-[3-(2-pyridylamino)-1-(2,2,2-trifluoroethyl)pyrazolo[4,3-c]pyridin-6-yl]methanone] | < 100 nM | < 100 nM
21 | [2H]C1([2H])COCCN(C(=O)c2cc3c(cn2)c(Nc2cc(F)ccn2)nn3CC(F)(F)F)C1 [Compound 60, (6,6-dideuterio-1,4-oxazepan-4-yl)-[3-[(4-fluoro-2-pyridyl)amino]-1-(2,2,2-trifluoroethyl)pyrazolo[4,3-c]pyridin-6-yl]methanone] | < 100 nM | < 100 nM
22 | O=C(c1cc2c(cn1)c(Nc1cnccn1)nn2CC(F)(F)F)N1CCCOCC1 [Compound 61, 1,4-oxazepan-4-yl-[3-(pyrazin-2-ylamino)-1-(2,2,2-trifluoroethyl)pyrazolo[4,3-c]pyridin-6-yl]methanone] | < 100 nM | < 100 nM
23 | O=C(c1cc2c(cn1)c(Nc1cc(C(F)(F)F)ccn1)nn2CC(F)(F)F)N1CCCOCC1 [Compound 62, 1,4-oxazepan-4-yl-[1-(2,2,2-trifluoroethyl)-3-[[4-(trifluoromethyl)-2-pyridyl]amino]pyrazolo[4,3-c]pyridin-6-yl]methanone] | < 100 nM | < 1000 nM
24 | COc1ccnc(Nc2nn(CC(F)(F)F)c3cc(C(=O)N4CCCOCC4)ncc23)c1 [Compound 63, [3-[(4-methoxy-2-pyridyl)amino]-1-(2,2,2-trifluoroethyl)pyrazolo[4,3-c]pyridin-6-yl]-(1,4-oxazepan-4-yl)methanone] | < 100 nM | < 100 nM
25 | O=C(c1cc2c(cn1)c(Nc1cc(Cl)ccn1)nn2CC(F)(F)F)N1CCCOCC1 [Compound 64, [3-[(4-chloro-2-pyridyl)amino]-1-(2,2,2-trifluoroethyl)pyrazolo[4,3-c]pyridin-6-yl]-(1,4-oxazepan-4-yl)methanone] | < 100 nM | < 100 nM
26 | O=C(c1cc2c(cn1)c(Nc1ccc(F)c(Cl)n1)nn2CC(F)(F)F)N1CCCOCC1 [Compound 65, [3-[(6-chloro-5-fluoro-2-pyridyl)amino]-1-(2,2,2-trifluoroethyl)pyrazolo[4,3-c]pyridin-6-yl]-(1,4-oxazepan-4-yl)methanone] | < 100 nM | < 1000 nM
27 | O=C(c1cc2c(cn1)c(Nc1cc(Cl)c(F)cn1)nn2CC(F)(F)F)N1CCCOCC1 [Compound 66, [3-[(4-chloro-5-fluoro-2-pyridyl)amino]-1-(2,2,2-trifluoroethyl)pyrazolo[4,3-c]pyridin-6-yl]-(1,4-oxazepan-4-yl)methanone] | < 100 nM | < 1000 nM
28 | Cc1ccnc(Nc2nn(CC(F)(F)F)c3cc(C(=O)N4CCCOCC4)ncc23)c1 [Compound 68, [3-[(4-methyl-2-pyridyl)amino]-1-(2,2,2-trifluoroethyl)pyrazolo[4,3-c]pyridin-6-yl]-(1,4-oxazepan-4-yl)methanone] | < 100 nM | < 1000 nM
